From ChEMBL document CHEMBL1151537 (Bioorg Med Chem Lett, 1994)
One block for each compound: values may come before it.

How the values were obtained:
Melatonin receptor = Melatonin receptor (Gallus gallus, UniProt P49288+P51050+P49285); experiment: Binding affinity towards melatonin receptor using 2-[125I]iodomelatonin as radioligand in chick brain membranes; type: cell membranes, Membrane
Xenopus laevis [1] = species on record: Xenopus laevis; experiment: Agonistic activity was determined in a pigment aggregation model using cultured melanophores isolated from the neural crest of Xenopus laevis embryos; partial; type: functional; conditions: frog; filed as partial agonist
Xenopus laevis [2] = species on record: Xenopus laevis; experiment: Agonistic activity was determined in a pigment aggregation model using cultured melanophores isolated from the neural crest of Xenopus laevis embryos; agonist; type: functional; conditions: frog; filed as agonist
Xenopus laevis [3] = species on record: Xenopus laevis; experiment: Agonistic activity was determined in a pigment aggregation model using cultured melanophores isolated from the neural crest of Xenopus laevis embryoss; agonist; type: functional; conditions: frog; filed as agonist
Xenopus laevis [4] = species on record: Xenopus laevis; experiment: Concentration producing half maximal aggregation of pigment granules in the centre of the melanophore isolated from the neural crest of Xenopus laevis embryos was determined; type: functional, frog
Xenopus laevis [5] = species on record: Xenopus laevis; experiment: Agonistic activity was determined in a pigment aggregation model using cultured melanophores isolated from the neural crest of Xenopus laevis embryos; Partial; type: functional; conditions: frog; filed as partial agonist

Ki (Melatonin receptor): 2600 nM
Structure (SMILES): O=C(NCCc1c[nH]c2ccccc12)C1CC1

Structure (SMILES): CCCC(=O)NCCc1c(-c2ccccc2)[nH]c2ccccc12
Activity (Xenopus laevis [1]): Partial agonist

Ki (Melatonin receptor): 398 nM
Structure (SMILES): CCC(=O)NCCc1c[nH]c2ccccc12

Ki (Melatonin receptor): 14 nM
Structure (SMILES): O=C(CBr)NCCc1c(Br)[nH]c2ccccc12
Activity (Xenopus laevis [2]): Agonist

Structure (SMILES): CC(=O)NCCc1c(-c2ccccc2)[nH]c2ccccc12
Activity (Xenopus laevis [3]): Agonist
EC50 (Xenopus laevis [4]): 70 nM

Ki (Melatonin receptor): 98 nM
Structure (SMILES): CCCC(=O)NCCc1c[nH]c2ccccc12
Activity (Xenopus laevis [5]): Partial agonist

Ki (Melatonin receptor): 153 nM
Structure (SMILES): O=C(CBr)NCCc1c[nH]c2ccccc12

Ki (Melatonin receptor): 138 nM
Structure (SMILES): CC(=O)NCCc1c(Br)[nH]c2ccccc12
Activity (Xenopus laevis [2]): Agonist

Structure (SMILES): O=C(NCCc1c(-c2ccccc2)[nH]c2ccccc12)C(F)(F)F
Activity (Xenopus laevis [1]): Partial agonist

Ki (Melatonin receptor): 27 nM
Structure (SMILES): CCC(=O)NCCc1c(Br)[nH]c2cc(Br)ccc12

Ki (Melatonin receptor): 2.3 nM
Structure (SMILES): CCCC(=O)NCCc1c(Br)[nH]c2cc(Br)ccc12
Activity (Xenopus laevis [1]): Partial agonist

Structure (SMILES): COc1ccc2[nH]cc(CCNC(C)=O)c2c1
Activity (Xenopus laevis [2]): Agonist

Ki (Melatonin receptor): 122 nM
Structure (SMILES): CC(=O)NCCc1c(Br)[nH]c2cc(Br)ccc12
Activity (Xenopus laevis [1]): Partial agonist

Structure (SMILES): CCC(=O)NCCc1c(-c2ccccc2)[nH]c2ccccc12
EC50 (Xenopus laevis [4]): 50 nM
Activity (Xenopus laevis [2]): Agonist

Ki (Melatonin receptor): 138 nM
Structure (SMILES): O=C(NCCc1c(Br)[nH]c2cc(Br)ccc12)C1CC1
Activity (Xenopus laevis [2]): Agonist

Ki (Melatonin receptor): 377 nM
Structure (SMILES): O=C(NCCc1c[nH]c2ccccc12)C(F)(F)F
Activity (Xenopus laevis [5]): Partial agonist

Ki (Melatonin receptor): 367 nM
Structure (SMILES): O=C(NCCc1c(Br)[nH]c2cc(Br)ccc12)C(F)(F)F

Structure (SMILES): CC(=O)NCCc1c[nH]c2ccccc12
Ki (Melatonin receptor): 701 nM
